# Source: patent US7407988B2, “Carbamic acid compounds comprising a sulfonamide linkage as HDAC inhibitors” (Topotarget UK Limited, priority 2000, dated 2008)
# Like-named read-outs stand apart in the source and are kept apart here.
# What was measured:
# HDAC (HeLa cell extract) = experiment: Primary assay: deacetylase activity, HeLa cell extract as source of HDAC; format: biochemical, human
# From the text: Briefly, this assay relies on the release of radioactive acetate from a radioactively labelled histone fragment by the action of HDAC enzyme. Test compounds, which inhibit HDAC, reduce the yield of radioactive acetate. Signal (e.g., scintillation counts) measured in the presence and absence of a test compound provide an indication of that compound's ability to inhibit HDAC activity. Decreased activity indicates increased inhibition by the test compound.
# The histone fragment was an N-terminal sequence from histone H4, and it was labelled with radioactively labelled acetyl groups using tritiated acetylcoenzyme A (coA) in conjunction with an enzyme which is the histone acetyltransferase domain of the transcriptional coactivator p300. […] The acetylated peptide was then separated from free acetyl coA by size exclusion chromatography on Sephadex G-15 (Sigma G-15-120), using distilled H2O as the mobile phase.
# After purification of the radiolabelled histone fragment, it was incubated with a source of HDAC (e.g., an extract of HeLa cells (a rich source of HDAC), recombinantly produced HDAC1 or HDAC2) and any released acetate was extracted into an organic phase and quantitatively determined using scintillation counting. By including a test compound with the source of HDAC, that compound's ability to inhibit the HDAC was determined.
# Two cell volumes of extraction buffer were used, and particulate material was centrifuged out (20800 g, 4° C., 10 min). The supernatant extract having deacetylase activity was aliquotted and frozen for storage.
# A source of HDAC (e.g., 2 μL of crude HeLa extract, 5 μL of HDAC1 or HDAC2; in elution buffer, as above) was incubated with 3 μL of radioactively labelled peptide along with appropriate dilutions of candidate compounds (1.5 μL) in a total volume of 150 μL of buffer (20 mM Tris pH 7.4, 10% glycerol). The reaction was carried out at 37° C. for one hour, after which the reaction was stopped by adding 20 μL of 1 M HCl/0.4 M sodium acetate. […] Radioactivity was measured using a Tri-Carb 21 00TR Liquid Scintillation Analyzer (Packard).
# Percent activity (% activity) for each test compound was calculated as: % activity={(S^C−B)/(S°−B)}×100 wherein S^C denotes signal measured in the presence of enzyme and the compound being tested, S° denotes signal measured in the presence of enzyme but in the absence of the compound being tested, and B denotes the background signal measured in the absence of both enzyme and compound being tested.
# HeLa cells = experiment: Secondary assay: cell proliferation WST-1, HeLa; format: cell-based; details: Homo sapiens, read-out: Cell Proliferation Inhibition WST-1 (IC50 unless otherwise specified) HeLa
# [1] = test system: K11 HPV E7 transformed human keratinocyte line; experiment: Secondary assay: cell proliferation WST-1, K11; format: cell-based; details: Homo sapiens, Keratinocyte; for IC50: Table 2, 48 h, read-out: Cell Proliferation Inhibition WST-1 (IC50 unless otherwise specified) K11
# JURKAT human T-cell line = experiment: Secondary assay: cell proliferation WST-1, Jurkat; format: cell-based; details: Homo sapiens, Table 2, 48 h, read-out: Cell Proliferation Inhibition WST-1 (IC50 unless otherwise specified) Jurkat
# [2] = Table 1, read-out: HDAC Inhibition (IC50 unless otherwise specified) HeLa
# [3] = comparative tables, HDAC inhibition, read-out: HeLa IC50
Structure (SMILES),IC50 (HDAC (HeLa cell extract); [2]),"IC50 (HeLa cells; Table 2, 48 h)",IC50 [1],IC50 (JURKAT human T-cell line),melting point,IC50 (HDAC (HeLa cell extract); [3]),IC50 (HeLa cells; 48 h),"inhibition at 20 µM ([1]; Table 2, @ 20 μM, 48 h)","HDAC Inhibition HeLa, % @ 500 (HDAC (HeLa cell extract); Table 1, @ 500)","HeLa, % @ 500 nM (HDAC (HeLa cell extract); comparative tables, @ 500 nM)"
O=C(/C=C/c1cccc(S(=O)(=O)Nc2ccc(Br)cc2)c1)NO [PX106509],6 nM,2000 nM,2000 nM,330 nM,204 °C,,,,,
O=C(/C=C/c1cccc(S(=O)(=O)Nc2ccc(Cl)cc2)c1)NO [PX106510],12 nM,2300 nM,4200 nM,250 nM,198 °C,,,,,
O=C(/C=C/c1cccc(S(=O)(=O)NCc2ccccc2)c1)NO [PX106511],35 nM,380 nM,2500 nM,235 nM,179 °C,35 nM,,,,
"O=C(/C=C/c1cccc(S(=O)(=O)NCc2cccc3ccccc23)c1)NO [PX117225, N-Hydroxy-3-{3-[(naphthalen-1-ylmethyl)sulfamoyl]-phenyl}-acrylamide]",640 nM,,,3300 nM,177 °C,640 nM,11900 nM,26%,,
"O=C(/C=C/c1cccc(S(=O)(=O)NCc2ccc3c(c2)OCO3)c1)NO [PX117226, 3-{3-[(Benzo[1,3]dioxol-5-ylmethyl)-sulfamoyl]-phenyl}-N-hydroxy-acrylamide]",26.3 nM,500 nM,2800 nM,100 nM,163 °C,,,,,
"COc1ccccc1NS(=O)(=O)c1cccc(/C=C/C(=O)NO)c1 [PX117227, N-Hydroxy-3-[3-(2-methoxy-phenylsulfamoyl)-phenyl]-acrylamide]",50 nM,1200 nM,4700 nM,360 nM,181 °C,,,,,
"O=C(/C=C/c1cccc(S(=O)(=O)NCc2cccnc2)c1)NO [PX117250, N-Hydroxy-3-{3-[(pyridin-3-ylmethyl)-sulfamoyl]-phenyl}-acrylamide]",192 nM,7800 nM,,1000 nM,191 °C,,,,,
"O=C(/C=C/c1cccc(NS(=O)(=O)/C=C/c2ccccc2)c1)NO [PX117446, N-Hydroxy-3-{3-[(E)-2-phenylethenesulfonylamino]phenyl}acrylamide]",18 nM,6000 nM,3700 nM,430 nM,171 °C,18 nM,,,,
"CN(c1ccccc1)S(=O)(=O)c1ccccc1/C=C/C(=O)NO [PX117448, N-Hydroxy-3-[2-(methyl-phenyl-sulfamoyl)-phenyl]-acrylamide]",,,,,144.5 to 145.5 °C,,88900 nM,,3% @ 500,3% @ 500 nM
"O=C(/C=C/c1ccc(S(=O)(=O)Nc2ccccc2)cc1)NO [PX117450, N-Hydroxy-3-(4-phenylsulfamoylphenyl)acrylamide]",20 nM,1600 nM,,,176 to 177.5 °C,20 nM,,,,
"O=C(/C=C/C#Cc1ccc(S(=O)(=O)Nc2ccccc2)cc1)NO [PX117453, E-5-(4-Phenylsulfamoylphenyl)pent-2-en-4-ynoic acid hydroxyamide]",45 nM,5700 nM,4200 nM,1100 nM,161 to 163 °C,45 nM,,,,
"O=C(/C=C/c1cccc(S(=O)(=O)NCc2ccco2)c1)NO [PX117710, 3-{3-[(Furan-2-ylmethyl)-sulfamoyl]-phenyl}-N-hydroxyacrylamide]",125 nM,5000 nM,4000 nM,420 nM,165 °C,,,,,
"COc1cccc(NS(=O)(=O)c2cccc(/C=C/C(=O)NO)c2)c1 [PX117712, N-Hydroxy-3-[3-(3-methoxy-phenylsulfamoyl)-phenyl]-acrylamide]",14 nM,1100 nM,650 nM,130 nM,137 °C,,,,,
"O=C(/C=C/c1cccc(S(=O)(=O)Nc2ccccc2-c2ccccc2)c1)NO [PX117713, 3-[3-(Biphenyl-2-ylsulfamoyl)phenyl]-N-hydroxy-acrylamide]",138 nM,5100 nM,9200 nM,620 nM,,,,,,
"O=C(/C=C/c1cccc(S(=O)(=O)Nc2ccc(-c3ccccc3)cc2)c1)NO [PX117715, 3-[3-(Biphenyl-4-ylsulfamoyl)-pheny]-N-hydroxy-acrylamide]",10 nM,1500 nM,930 nM,290 nM,188 °C,,,,,
"O=C(/C=C/c1cccc(S(=O)(=O)Nc2cccc(Br)c2)c1)NO [PX117734, 3-[3-(3-Bromo-phenylsulfamoyl)-phenyl]-N-hydroxy-acrylamide]",8 nM,2100 nM,880 nM,79 nM,135.5 to 136.5 °C,,,,,
"O=C(/C=C/c1cccc(S(=O)(=O)NC2Cc3ccccc3C2)c1)NO [PX117735, N-Hydroxy-3-[3-(indan-2-ylsulfamoyl)-phenyl]-acrylamide]",6 nM,,3100 nM,74 nM,164 °C,,,,,
"O=C(/C=C/c1ccc(S(=O)(=O)Nc2ccc3ccccc3c2)cc1)NO [PX117736, N-Hydroxy-3-[4-(naphthalen-2-ylsulfamoyl)-phenyl]-acrylamide]",6 nM,,800 nM,120 nM,198.5 to 199.5 °C,,,,,
"O=C(/C=C/c1cccc(S(=O)(=O)NC(c2ccccc2)c2ccccc2)c1)NO [PX117773, 3-[3-(Benzhydryl-sulfamoyl)-phenyl]-N-hydroxy-acrylamide]",67 nM,3400 nM,6200 nM,1200 nM,180 °C,,,,,
"O=C(/C=C/c1cccc(S(=O)(=O)NC(Cc2ccccc2)c2ccccc2)c1)NO (centres unmarked) [PX117774, 3-[3-(1,2-Diphenyl-ethylsulfamoyl)-phenyl]-N-hydroxy-acrylamide]",396 nM,6400 nM,7000 nM,1000 nM,150 °C,,,,,
"O=C(/C=C/c1cccc(S(=O)(=O)Nc2ccc(OC(F)(F)F)cc2)c1)NO [PX117775, N-Hydroxy-3-[3-(4-trifluoromethoxy-phenylsulfamoyl)-phenyl]-acrylamide]",16 nM,2100 nM,5300 nM,530 nM,131 °C,,,,,
"COc1cc(CNS(=O)(=O)c2cccc(/C=C/C(=O)NO)c2)cc(OC)c1OC [PX117778, N-Hydroxy-3-[3-(3,4,5-trimethoxy-benzylsulfamoyl)-phenyl]-acrylamide]",> 400 nM,,> 30000 nM,> 10000 nM,,,,,,
"COc1ccc(CCNS(=O)(=O)c2cccc(/C=C/C(=O)NO)c2)cc1OC [PX117779, 3-{3-[2-(3,4-Dimethoxy-phenyl)-ethylsulfamoyl]-phenyl}-N-hydroxy-acrylamide]",250 nM,9600 nM,1400 nM,1100 nM,,,,,,
"COc1ccc(S(=O)(=O)Nc2cccc(/C=C/C(=O)NO)c2)cc1OC [PX117780, 3-[3-(3,4-Dimethoxy-benzenesulfonylamino)-phenyl]-N-hydroxy-acrylamide]",125 nM,16800 nM,10500 nM,4000 nM,158 °C,,,,,
"O=C(/C=C/c1cccc(NS(=O)(=O)c2ccc(-c3ccccc3)cc2)c1)NO [PX117781, 3-[3-(Biphenyl-4-sulfonylamino)-phenyl]-N-hydroxy-acrylamide]",58 nM,3400 nM,2200 nM,800 nM,115 °C,,,,,
"COc1ccc(NS(=O)(=O)c2cccc(/C=C/C(=O)NO)c2)cc1OC [PX117782, 3-[3-(3,4-Dimethoxy-phenylsulfamoyl)-phenyl]-N-hydroxy-acrylamide]",38 nM,2900 nM,15600 nM,350 nM,191 °C,,,,,
